Data from patent publication US10278971B2, “Fluorocyclopentenylcytosine methods of use” (Rexahn Pharmaceuticals, Inc., priority 2015, dated 2019).

What was measured:
Assay type in all cases: cell-based, human
[1] = test system: PCFT; test: PCFT mediated transport of radiolabeled MTX; conditions: CEM cells, 24 hr; RX-3117 29.6 μM; DAC positive control
Description: In this study, the following cell lines were used: (1) CCRF-CEM cells and its MTX resistant variant CEM-MTX, characterized by a deficiency of the reduced folate carrier (RFC) (Jansen G., et al., JBC 273 (1998) 30189-30198). The PCFT gene in CEM cells is highly methylated. (Gonen N., et al., BBRC 376 (2008) 787-92.); (2) CEM cells cultured in RPMI medium with 10% fetal bovine serum (FBS); and (3) A549 and SW1573 non-small cell lung cancer (NSCLC) and A2780 ovarian cancer cell lines cultured in DMEM medium with 10% FBS.
MTX transport was measured using radiolabeled MTX in CEM wild type and CEM-MTX cell lines. CEM cells have a high RFC activity. CEM-MTX are completely deficient in RFC-mediated transport. CEM cells have a highly methylated PCFT transporter and a very low PCFT mediated transport (Gonen N., et al., BBRC 376 (2008) 787-92). MTX transport at pH 7.4 is predominantly RFC mediated and less than 2% by PCFT. Folic acid was used to inhibit PCFT mediated transport. […] CEM and CEM-MTX cells were exposed to 29.6 μM RX-3117 and to 0, 19 μM aza-CdR as a positive control. MTX transport was measured after 24 hr to the drugs in a 3 minutes uptake assay using 2 μM [3′,5,′7-3H]-MTX.

[2] = test system: overall methylation of DNA; test: Overall methylation of DNA with antibody against 5-methyl-cytosine; conditions: A549, 5 μM, 48 hr exposure
Description: (§1) DNMT1 protein expression was measured by Western Blotting after exposure to RX-3117 for 24 or 48 hr. DNMT1 RNA expression was measured by real-time PCR after 24 and 48 hr exposure to RX-3117. DNMT enzyme activity was measured in isolated nuclei after exposure 1 μM RX-3117 or 5 μM aza-CdR using a DNA methyltransferase assay kit provided by EpiGentek using the ability of a CpG dinding domain to bind to methylated DNA. In A549 cells the effect of 5 μM RX-3117 on overall methylation was measured with a specific antibody against 5-methyl-cytosine. Bands on Western blots were visualized using appropriate InfraRedDye using an Odyssey InfraRed imager.

[3] = test system: DNMT1; test: DNMT enzyme activity in isolated nuclei (DNA methyltransferase assay kit); conditions: A2780 nuclear extracts, 5 μM, 24 hr
Description: as §1

Nc1ncn([C@H]2C[C@H](O)[C@@H](CO)O2)c(=O)n1 [DAC, 5-aza-2′-deoxycytidine, reference compound]
increase of PCFT mediated transport of MTX [1]: 4 fold
decrease of overall methylation of DNA [2]: 9%
inhibition of DNMT1 activity [3]: 31%
